Experimental data reported in PMC467089, “Click estradiol dimers with novel aromatic bridging units: synthesis and anticancer evaluation” (Journal of Enzyme Inhibition and Medicinal Chemistry, 2024).

Experiments:
[1] = tested on: HCT116 (colorectal adenocarcinoma); test: MTS cytotoxicity assay, HCT116; type: cell-based; details: Homo sapiens, HCT-116, 72 h, read-out: IC50 cytotoxic activity HCT116
Protocol: (§1) The p53 deficient variant, HCT116p53−/−, was purchased from Horizon Discovery (Cambridge, UK). The daunorubicin-resistant CCRF-CEM cell line CEM-DNR bulk and paclitaxel-resistant K562-TAX sublines were developed in-house by exposing parental cell lines to escalating concentrations of daunorubicin and paclitaxel, respectively. Cells were maintained in the recommended culture medium (Sigma-Aldrich, St. Louis, MO) supplemented with 10% foetal calf serum, 100 U/mL penicillin, and 100 μg/mL streptomycin. The HUVEC line was obtained from PromoCell (Heidelberg, Germany). The cells were cultured in endothelial cell growth medium with SupplementMix for endothelial cells (PromoCell, Heidelberg, Germany). The incubation conditions were a humidified atmosphere of 95% air and 5% CO2 at 37 °C[10]. Cells were seeded in 384-well plates and after overnight incubation treated with compounds. All tested compounds were dissolved in 100% DMSO, and fourfold serial dilutions were performed using an Echo550 liquid handler (Labcyte, San Jose, CA). The experiments were performed in technical duplicates and three biological replicates. Cells were incubated with compounds for 72 h and thereafter 5 μL of MTS reagent was added to each well.

U2OS (osteosarcoma) = test: MTS cytotoxicity assay, U2OS; type: cell-based, human; details: Homo sapiens, U2OS, 72 h, read-out: IC50 cytotoxic activity U2OS
Protocol: as §1

[2] = tested on: A549 (lung adenocarcinoma); test: MTS cytotoxicity assay, A549; type: cell-based, human; details: Homo sapiens, A549, 72 h, read-out: IC50 cytotoxic activity A549
Protocol: as §1

CCRF-CEM lymphoblasts [3] = test: Phospho-histone H3 (Ser10) mitotic marker, flow cytometry; type: cell-based, human
Protocol: (§2) To further characterise the mode of action of studied compounds, we analysed the cell cycle profile of CCRF-CEM cells treated with compounds for 24 h. […] The compounds ED1–ED9 and ED12 induced arrest in G2/M phase of the cell cycle (Figure 2(A)). To differentiate between G2 block and mitotic arrest, we used phospho-histone H3 (Ser10) mitotic marker (Figure 2(B)). […] Generally, dimers induced a dose-dependent increase of sub G1 cell population with fragmented DNA except for ED2 and ED4 (Figure 2(C)). […] To assess the proliferation of treated cells, they were subjected to 5-bromo-2-deoxyuridine (BrDU) labelling. […] Analogously, changes in 5-bromouridine (BrU) incorporation were examined to monitor overall RNA synthesis.
(§3) Treated CCRF-CEM cells were harvested, washed with ice-cold phosphate-buffered saline (PBS), fixed in cold 70% ethanol and stored at −20 °C. Prior to analysis, fixed cells were permeabilised with 0.25% Triton X-100 in PBS for 15 min, blocked in 1% bovine serum, and incubated with anti-phospho-Histone H3 (Ser^10) antibody (Merck Millipore, Burlington, MA). Subsequently, the cells were treated with 50 μg/mL RNAse, stained with propidium iodide and analysed by FACSCalibur (Becton Dickinson, Franklin Lakes, NJ) flow cytometer at 488 nm. Cell cycle distribution (G1, S, and G2/M) was analysed using ModFitLT software (Verity, Topsham, ME), and reflects only viable population prior to the fixing procedure. Particles with lower propidium iodide content than G1 phase cells were classified as non-viable cells with fragmented DNA. Flow cytometry data visualisation was performed using OriginPro 2018b (b9.5.5.409) software (OriginLab Corporation, Northampton, MA)[10].

[4] = tested on: K562 (chronic myelogenous leukaemia); test: MTS cytotoxicity assay, K562; type: cell-based; details: Homo sapiens, K562, 72 h, read-out: IC50 cytotoxic activity K562
Protocol: as §1

[5] = MTS cytotoxicity assay, HUVEC; type: cell-based; details: human
Protocol: as §1

porcine brain tubulin = biological target: T1, porcine brain tubulin (Sus scrofa, UniProt P02550+P02554); test: Tubulin polymerisation assay; type: biochemical; details: 10 μmol/L, Vmax relative to DMSO
T1 construct: purchased Cytoskeleton, Denver, CO; host or cells: porcine brain (tissue-purified)
Protocol: Tubulin polymerisation assay kit (Cytoskeleton, Denver, CO) was used according to the manufacturer’s instructions. Polymerisation of porcine brain tubulin (>99% purity) was measured using an EnVision Multilabel Plate Reader (PerkinElmer, Waltham, MA) at 37 °C, in the presence of either 10 μmol/L test compounds or DMSO. Maximum polymerisation velocity (Vmax) was calculated from the polymerisation curves. Data visualisation was performed in OriginPro 2018b (b9.5.5.409) software (OriginLab Corporation, Northampton, MA)[10].

[6] = MTS cytotoxicity assay, MRC-5; type: cell-based; details: human
Protocol: as §1

CCRF-CEM lymphoblasts [7] = test: BrU incorporation analysis (RNA synthesis); type: cell-based, human
Protocol: as §2
Prior to the trypsinisation, cells were treated with 1 mM BrU for 30 min. Subsequently, the cells were fixed in 1% paraformaldehyde with 0.05% of NP-40 for 15 min at RT and stored overnight at 4 °C. Fixed cells were washed with 1% glycine in PBS and stained with primary anti-BrdU antibody clone MoBu-1 crossreacting with BrU (Exbio, Vestec, Czech Republic) for 30 min at RT, washed with PBS and labelled with secondary anti-mouse-FITC antibody (Sigma-Aldrich, St. Louis, MO). Following 1-h incubation in 1% paraformaldehyde containing 0.05% NP-40, cells were stained with propidium iodide (0.1 mg/mL) and treated with RNase A (0.5 mg/mL) for 1 h at RT. The percentage of BrU positive cells was quantified using CellQuest software.

[8] = tested on: K562-TAX (paclitaxel-resistant variant of K562); test: MTS cytotoxicity assay, K562-TAX; type: cell-based, human; details: Homo sapiens, K562-Tax, 72 h, read-out: IC50 cytotoxic activity K562-TAX
Protocol: as §1

[9] = tested on: HCT116p53−/− (p53 gene null variant of HCT116); test: MTS cytotoxicity assay, HCT116p53−/−; type: cell-based; details: Homo sapiens, HCT-116, 72 h, read-out: IC50 cytotoxic activity HCT116p53-
Protocol: as §1

[10] = tested on: CCRF-CEM (childhood T-cell acute lymphoblastic leukaemia); test: MTS cytotoxicity assay, CCRF-CEM; type: cell-based; details: Homo sapiens, 72 h, read-out: IC50 cytotoxic activity CCRF-CEM
Protocol: as §1

CCRF-CEM lymphoblasts [11] = test: Cell cycle analysis by flow cytometry (propidium iodide); type: cell-based, human
Protocol: as §2, §3

[12] = tested on: CEM-DNR (daunorubicin resistant variant of CCRF-CEM); test: MTS cytotoxicity assay, CEM-DNR; type: cell-based, human; details: Homo sapiens, CEM-DNR, 72 h, read-out: IC50 cytotoxic activity CEM-DNR
Protocol: as §1

CCRF-CEM lymphoblasts [13] = test: BrDU incorporation analysis (DNA synthesis); type: cell-based, human
Protocol: as §2
Thirty minutes before harvesting, cells were pulse-labelled with 10 μM BrDU. After overnight fixation in ice-cold 70% ethanol, cells were resuspended in 2 M HCl for 30 min at room temperature (RT), then washed with 0.1 M Na2B4O7 and blocked with PBS containing 0.5% Tween-20 and 1% BSA. BrDU incorporation was analysed using anti-BrdU antibody clone MoBu-1 (Exbio, Vestec, Czech Republic) and a secondary anti-mouse-FITC antibody (Sigma-Aldrich, St. Louis, MO). Cells were washed with PBS and stained with 0.1 mg/mL propidium iodide and 0.5 mg/mL RNase A for 1 h at RT and analysed by flow cytometry using a 488 nm single beam laser (FACSCalibur, Becton Dickinson, Franklin Lakes, NJ). The percentage of cells with incorporated BrDU was analysed using CellQuest software.

[14] = MTS cytotoxicity assay, BJ; type: cell-based; details: human
Protocol: as §1

T1 sequence (P02550 whole entry): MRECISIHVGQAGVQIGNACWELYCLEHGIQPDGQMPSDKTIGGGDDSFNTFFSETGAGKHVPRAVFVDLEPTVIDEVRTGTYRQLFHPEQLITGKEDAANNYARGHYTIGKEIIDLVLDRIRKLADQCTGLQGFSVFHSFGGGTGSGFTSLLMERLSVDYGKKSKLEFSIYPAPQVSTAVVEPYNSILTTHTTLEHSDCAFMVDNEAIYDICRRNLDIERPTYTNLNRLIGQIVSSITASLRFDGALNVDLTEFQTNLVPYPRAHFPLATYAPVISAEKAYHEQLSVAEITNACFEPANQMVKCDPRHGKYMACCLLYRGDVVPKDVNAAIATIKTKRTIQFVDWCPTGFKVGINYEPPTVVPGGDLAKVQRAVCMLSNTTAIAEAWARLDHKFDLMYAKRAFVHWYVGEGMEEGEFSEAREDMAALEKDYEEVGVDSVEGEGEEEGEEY
T1 sequence (P02554 whole entry): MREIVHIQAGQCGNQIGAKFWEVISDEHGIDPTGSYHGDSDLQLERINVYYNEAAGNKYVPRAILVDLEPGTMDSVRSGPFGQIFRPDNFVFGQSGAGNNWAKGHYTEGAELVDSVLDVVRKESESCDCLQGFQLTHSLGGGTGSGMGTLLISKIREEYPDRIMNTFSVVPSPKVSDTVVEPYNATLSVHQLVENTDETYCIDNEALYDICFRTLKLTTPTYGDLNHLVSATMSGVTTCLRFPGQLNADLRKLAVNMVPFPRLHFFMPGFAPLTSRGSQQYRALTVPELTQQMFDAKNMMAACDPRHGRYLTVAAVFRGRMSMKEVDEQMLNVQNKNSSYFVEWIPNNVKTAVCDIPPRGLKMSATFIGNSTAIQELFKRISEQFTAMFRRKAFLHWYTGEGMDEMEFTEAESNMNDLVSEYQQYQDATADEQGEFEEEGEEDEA

| SMILES | IC50 [1] | IC50 (U2OS (osteosarcoma)) | IC50 [2] | pH3Ser10, % of positive cells (CCRF-CEM lymphoblasts [3]; 1×IC50, 24 h) | pH3Ser10, % of positive cells (CCRF-CEM lymphoblasts [3]; 5×IC50, 24 h) | IC50 [4] | IC50 at 72 h [5] | inhibitory activity against tubulin polymerisation (in words) (porcine brain tubulin) | IC50 at 72 h [6] | BrU, % of positive cells (CCRF-CEM lymphoblasts [7]; 1×IC50, 24 h) | BrU, % of positive cells (CCRF-CEM lymphoblasts [7]; 5×IC50, 24 h) | IC50 [8] | IC50 [9] | IC50 [10] | <G1 (sub-G1, fragmented DNA), % of positive cells (CCRF-CEM lymphoblasts [11]; 1×IC50, 24 h) | >G2/M (polyploidy), % of positive cells (CCRF-CEM lymphoblasts [11]; 1×IC50, 24 h) | G0/G1, % of positive cells (CCRF-CEM lymphoblasts [11]; 1×IC50, 24 h) | G2/M, % of positive cells (CCRF-CEM lymphoblasts [11]; 1×IC50, 24 h) | S, % of positive cells (CCRF-CEM lymphoblasts [11]; 1×IC50, 24 h) | <G1 (sub-G1, fragmented DNA), % of positive cells (CCRF-CEM lymphoblasts [11]; 5×IC50, 24 h) | also measured |
| --- | --- | --- | --- | --- | --- | --- | --- | --- | --- | --- | --- | --- | --- | --- | --- | --- | --- | --- | --- | --- | --- |
| Cc1cc(Cn2cc([C@]3(O)CC[C@H]4[C@@H]5CCc6cc(O)ccc6[C@H]5CC[C@@]43C)nn2)c(O)c(Cn2cc([C@]3(O)CC[C@H]4[C@@H]5CCc6cc(O)ccc6[C@H]5CC[C@@]43C)nn2)c1 [ED6, (17β,17′β)-17,17′-[(2-Hydroxy-5-methylbenzene-1,3-diyl)bis(methanediyl-1H-1,2,3-triazole-1,4-diyl)]bisestra-1,3,5(10)-triene-3,17-diol] | 1740 ± 110 nM | 5060 ± 1680 nM | 8600 ± 2220 nM | 9.07% | 0.76% | 1390 ± 210 nM | < 12.2 nM | comparable or better inhibitory activity | > 50000 nM | 67.97% | 39.43% | > 50000 nM | 1870 ± 130 nM | 1540 ± 250 nM | 11.43% | 6.19% | 32.46% | 29.74% | 37.81% | 36.87% | RNA synthesis, BrU incorporation (in words) (CCRF-CEM lymphoblasts [7]; 1× and 5×IC50, 24 h, gated remaining live cells): high rate of RNA synthesis; >G2/M (polyploidy), % of positive cells (CCRF-CEM lymphoblasts [11]; 5×IC50, 24 h): 9.85%; G0/G1, % of positive cells (CCRF-CEM lymphoblasts [11]; 5×IC50, 24 h): 8.21%; G2/M, % of positive cells (CCRF-CEM lymphoblasts [11]; 5×IC50, 24 h): 73.29%; S, % of positive cells (CCRF-CEM lymphoblasts [11]; 5×IC50, 24 h): 18.50%; IC50 [12]: > 50000 nM; BrDU, % of positive cells (CCRF-CEM lymphoblasts [13]; 1×IC50, 24 h): 37.25%; BrDU, % of positive cells (CCRF-CEM lymphoblasts [13]; 5×IC50, 24 h): 7.83%; IC50 at 72 h [14]: > 50000 nM |
| CC(=O)Oc1c(Cn2cc([C@]3(O)CC[C@H]4[C@@H]5CCc6cc(O)ccc6[C@H]5CC[C@@]43C)nn2)cc(C)cc1Cn1cc([C@]2(O)CC[C@H]3[C@@H]4CCc5cc(O)ccc5[C@H]4CC[C@@]32C)nn1 [ED7, 2,6-Bis({4-[(17β)-3,17-dihydroxyestra-1,3,5(10)-trien-17-yl]-1H-1,2,3-triazol-1-yl}methyl)-4-methylphenyl acetate] | 1610 ± 87 nM | 3860 ± 1390 nM | > 50000 nM | 0.68% | 11.22% | 770 ± 130 nM | 14 ± 2 nM | comparable or better inhibitory activity | > 50000 nM | 52.67% | 27.20% | > 50000 nM | 1790 ± 170 nM | 1290 ± 130 nM | 40.74% | 7.12% | 32.36% | 33.76% | 33.88% | 45.33% | >G2/M (polyploidy), % of positive cells (CCRF-CEM lymphoblasts [11]; 5×IC50, 24 h): 7.43%; G0/G1, % of positive cells (CCRF-CEM lymphoblasts [11]; 5×IC50, 24 h): 32.48%; G2/M, % of positive cells (CCRF-CEM lymphoblasts [11]; 5×IC50, 24 h): 32.87%; S, % of positive cells (CCRF-CEM lymphoblasts [11]; 5×IC50, 24 h): 34.65%; IC50 [12]: > 50000 nM; BrDU, % of positive cells (CCRF-CEM lymphoblasts [13]; 1×IC50, 24 h): 9.50%; BrDU, % of positive cells (CCRF-CEM lymphoblasts [13]; 5×IC50, 24 h): 5.65%; IC50 at 72 h [14]: > 50000 nM |
